Patent publication US11771084B2, “Preservation of personal care compositions” (SHARON LABORATORIES LTD., priority 2018, dated 2023)
In brackets after ≈: the same amount, converted by molar mass. Where two headings read alike, the source gives them in different places.

Legend:
[1] = Maltol shielding: absorbance at 410 nm, chelators, stainless steel 316; assay type: physicochemical; settings: 0.5% solution of 90% Maltol and 10% Polyquaternium-80 in demineralized water, stainless steel 316 chip 12 hr
Excerpt: Maltol has a metal chelating property. It can bond with metal ions and form a chelate product that can be strongly colored. This reaction is highly likely to happen when maltol is used in a manufacturing process involving steel based equipment. It means that even small quantities of these chelates could induce an undesirable color in a finished cosmetic product. A way to inhibit this phenomenon would be to add to maltol a small quantity of a stronger chelating agent, in order to intercept possible metal ions before Maltol could do so. Thus, an examination of various chelating agents in order to “protect” the Maltol from chelating metal ions was done. Procedure: […]

C. albicans ATCC 10231 = test: MIC evaluation test; assay type: cell-based, Candida albicans
Experimental: In additional exemplary procedure, minimum inhibitory concentration (MIC) evaluation test with Candida albicans was performed in test tubes. Growth in this case is visually evaluated. A pure culture of a single microorganism was grown in Tryptic soy broth, or sabouraud broth for yeast and mold.
(§1) The culture is standardized using standard microbiological techniques to have a concentration of very near 1 million cells per milliliter.
(§2) The antimicrobial agent is diluted a number of times, with Tryptic soy broth or sabouraud broth for fungi. After the antimicrobial agent had been diluted, a volume of the standardized inoculums was added to each dilution vessel, bringing the microbial concentration to approximately 1,000,000 cells per milliliter. The inoculated, serially diluted antimicrobial agent was incubated at an appropriate temperature for the test organism, 24 hours for bacteria 48 for yeast and 72 for mold.
(§3) MIC results are expressed in ppm.
(§4) The microorganism strains used for the test were E. coli ATCC 8739, P. aeruginosa ATCC 9027, S. aureus ATCC 6538, C. albicans ATCC 10231, A. niger ATCC 16404.

S. aureus ATCC 6538 = test: MIC evaluation test; assay type: cell-based, Staphylococcus aureus
Experimental: as §1, §2, §3, §4

P. aeruginosa ATCC 9027 = test: MIC evaluation test; assay type: cell-based, Pseudomonas aeruginosa
Experimental: as §1, §2, §3, §4

E. coli ATCC 8739 = test: MIC evaluation test; assay type: cell-based, Escherichia coli
Experimental: as §1, §2, §3, §4

A. niger ATCC 16404 = test: MIC evaluation test; assay type: cell-based, Aspergillus brasiliensis (niger)
Experimental: In another exemplary procedure, MIC evaluation test with A. niger was performed in test tubes. Growth in this case is visually evaluated. A pure culture of a single microorganism was grown in Tryptic soy broth, or sabouraud broth for yeast and mold.
as §1, §2, §3, §4

[2] = formulation on stainless steel 304
Experimental: Procedure: To a 0.5% solution of 90% Maltol and 10% Polyquaternium-80 in demineralized water a chelating agent was added in concentrations of 25 ppm, 50 ppm, 100 ppm, 150 ppm, 200 ppm and 250 ppm, then a chip of stainless steel 316 (˜1×1 cm) was added to the solution for 12 hr.
The absorbance at 410 nm was measured with spectrophotometer Genesys 10uv (Thermo Scientific), the blank was a solution of 0.5% 90% Maltol and 10% Polyquaternium-80 in demineralized water.

[3] = Staphylococcus aureus, ATCC6538
[4] = Pseudomonas aeruginosa, ATCC9027

| Molecule | absorbance at 410 nm ([1]; chelator Concentration (%) 0.5) | absorbance at 410 nm ([1]; chelator Concentration (%) 1) | absorbance at 410 nm ([1]; chelator Concentration (%) 2) | absorbance at 410 nm ([1]; chelator Concentration (%) 3) | absorbance at 410 nm ([1]; chelator Concentration (%) 4) | absorbance at 410 nm ([1]; chelator Concentration (%) 5) | further results |
| --- | --- | --- | --- | --- | --- | --- | --- |
| O=C(O)CCN(CC(=O)O)CC(=O)O [Beta Alanine diAcetic acid] | 0.133 | 0.039 | 0.045 | 0.124 | 0.067 | 0.098 | – |
| CCCCCCCCCCCC(=O)N[C@@H](CCCN=C(N)N)C(=O)OCC [Ethyl Lauroyl Arginate] | – | – | – | – | – | – | MIC (C. albicans ATCC 10231): 10000 ppm; MIC (S. aureus ATCC 6538): 500 ppm; MIC (P. aeruginosa ATCC 9027): 5000 ppm; MIC (E. coli ATCC 8739): 2500 ppm; MIC (A. niger ATCC 16404): 20000 ppm |
| CCCCCCCCCCCC[N+](C)(C)Cc1ccccc1.[Cl-] [Benzyldimethyldodecylammonium chloride] | – | – | – | – | – | – | MIC (C. albicans ATCC 10231; Candida albicans, ATCC10231): < 60 µg/mL; MIC (S. aureus ATCC 6538; [3]): < 60 µg/mL; MIC (P. aeruginosa ATCC 9027; [4]): 120 µg/mL; MIC (E. coli ATCC 8739; Escherichia coli, ATCC8739): < 60 µg/mL; MIC (A. niger ATCC 16404; Aspergillus niger, ATCC16404): < 60 µg/mL |
| O=C([O-])CN(CCN(CC(=O)O)CC(=O)O)CC(=O)[O-].[Na+].[Na+] [Disodium EDTA, Ethylenediaminetetraacetic acid disodium salt] | 0.022 | 0.009 | 0.004 | 0.002 | 0 | 0 | absorbance at 410 nm ([2]; chelator Concentration (%) 0.5): 0.061; absorbance at 410 nm ([2]; chelator Concentration (%) 1): 0.010; absorbance at 410 nm ([2]; chelator Concentration (%) 2): 0.026; absorbance at 410 nm ([2]; chelator Concentration (%) 3): 0.007; absorbance at 410 nm ([2]; chelator Concentration (%) 4): 0; absorbance at 410 nm ([2]; chelator Concentration (%) 5): 0 |
| Cc1occc(=O)c1O [Maltol] | – | – | – | – | – | – | MIC (C. albicans ATCC 10231; Candida albicans, ATCC10231, read-out: MIC): 2250 µg/mL (≈ 17.8 mM); MIC (S. aureus ATCC 6538; Staphylococcus aureus, ATCC6538, read-out: MIC): 3800 µg/mL (≈ 30.1 mM); MIC (P. aeruginosa ATCC 9027; Pseudomonas aeruginosa, ATCC9027, read-out: MIC): < 1350 µg/mL; MIC (E. coli ATCC 8739; Escherichia coli, ATCC8739, read-out: MIC): 4000 µg/mL (≈ 31.7 mM); MIC (A. niger ATCC 16404; Aspergillus niger, ATCC16404, read-out: MIC): 3150 µg/mL (≈ 25 mM) |
| Zinc gluconate | 0.231 | 0.136 | 0.207 | 0.096 | 0.147 | 0.058 | – |
| COc1cc(C=O)ccc1O [Vanillin] | 0.037 | 0.053 | 0.062 | 0.05 | 0.159 | 0.048 | – |
| O=C1O[C@H]([C@@H](O)CO)C(O)=C1O [Ascorbic acid] | 0.182 | 0.162 | 0.145 | 0.155 | 0.101 | 0.06 | – |
| COc1cc(C(=O)[O-])ccc1O.[Na+] [Sodium vanillate] | 0.073 | 0.044 | 0.386 | 0.226 | 0.078 | 0.12 | – |
| CSCC[C@H](N)C(=O)O [L-Methionine] | 0.113 | 0.391 | 0.393 | 0.102 | 0.311 | 0.096 | – |
| O=C([O-])[C@H](O)[C@@H](O)[C@H](O)[C@H](O)CO.[Na+] [Sodium gluconate] | 0.022 | 0.04 | 0.042 | 0.045 | 0.005 | 0.006 | – |
| CCCCCCCCCCCC[N+](C)(C)C.[Cl-] [Dodecyltrimethylammonium chloride] | – | – | – | – | – | – | MIC (C. albicans ATCC 10231; Candida albicans, ATCC10231): < 60 µg/mL; MIC (S. aureus ATCC 6538; [3]): < 60 µg/mL; MIC (P. aeruginosa ATCC 9027; [4]): 360 µg/mL; MIC (E. coli ATCC 8739; Escherichia coli, ATCC8739): < 60 µg/mL; MIC (A. niger ATCC 16404; Aspergillus niger, ATCC16404): 360 µg/mL |
| CCCCCCCCCC[N+](C)(C)CCCCCCCCCC.[Cl-] [Didecyldimethylammonium chloride] | – | – | – | – | – | – | MIC (C. albicans ATCC 10231; Candida albicans, ATCC10231): < 30 µg/mL; MIC (S. aureus ATCC 6538; [3]): < 3 µg/mL; MIC (P. aeruginosa ATCC 9027; [4]): 15 µg/mL; MIC (E. coli ATCC 8739; Escherichia coli, ATCC8739): < 3 µg/mL; MIC (A. niger ATCC 16404; Aspergillus niger, ATCC16404): < 30 µg/mL |
